According to the NIST ThermoML archive (doi:10.1021/je060389r):
± gives the expanded uncertainty stated by the source.

Key:
[1] = 298.15 K, 101 kPa, Liquid; for viscosity: Capillary tube (Ostwald / Ubbelohde) method; for speed of sound: Linear variable-path acoustic interferometer; for mass density: Pycnometric method
[2] = xn = mol fraction of the nth substance listed; conditions: 298.15 K, 101 kPa, Liquid; for viscosity: Capillary tube (Ostwald / Ubbelohde) method; for speed of sound: Linear variable-path acoustic interferometer; for mass density: Pycnometric method

CC(C)CO [2-methyl-1-propanol]
[1]
Conditions | mass density [kg/m3] | speed of sound [m/s] | viscosity [mPa·s]
– | 798.2 ± 0.4 | 1191.3 ± 9.6 | 3.404 ± 0.029

CC(C)CO [2-methyl-1-propanol] + CCCCCC
[2]
Conditions | mass density [kg/m3] | speed of sound [m/s] | viscosity [mPa·s]
x1 = 0.0554 | 660.1 ± 0.4 | 1077.5 ± 8.7 | 0.323 ± 0.012
x1 = 0.104 | 664.9 ± 0.4 | 1077.5 ± 8.7 | 0.337 ± 0.012
x1 = 0.2 | 675.1 ± 0.4 | 1080.1 ± 8.7 | 0.373 ± 0.012
x1 = 0.3274 | 690.1 ± 0.4 | 1086.7 ± 8.8 | 0.462 ± 0.012
x1 = 0.4173 | 701.6 ± 0.4 | 1094.1 ± 8.8 | 0.547 ± 0.013
x1 = 0.4666 | 708.3 ± 0.4 | 1099.2 ± 8.9 | 0.606 ± 0.013
x1 = 0.5057 | 713.8 ± 0.4 | 1103.5 ± 8.9 | 0.659 ± 0.013
x1 = 0.5589 | 721.5 ± 0.4 | 1110 ± 9 | 0.748 ± 0.013
x1 = 0.609 | 729 ± 0.4 | 1116.9 ± 9 | 0.859 ± 0.013
x1 = 0.7073 | 744.6 ± 0.4 | 1132.5 ± 9.2 | 1.162 ± 0.014
x1 = 0.8051 | 761.2 ± 0.4 | 1150 ± 9.3 | 1.627 ± 0.017
x1 = 0.861 | 771.2 ± 0.4 | 1161.3 ± 9.4 | 2.004 ± 0.019
x1 = 0.9149 | 781.3 ± 0.4 | 1172.5 ± 9.5 | 2.454 ± 0.022
x1 = 0.9376 | 785.7 ± 0.4 | 1177.5 ± 9.5 | 2.67 ± 0.023
x1 = 1 | 798.2 ± 0.4 | 1191.3 ± 9.6 | 3.404 ± 0.029

CC(C)CO [2-methyl-1-propanol] + CCCCCCCC
[2]
Conditions | mass density [kg/m3] | speed of sound [m/s] | viscosity [mPa·s]
x1 = 0.0589 | 701.5 ± 0.4 | 1168.3 ± 9.4 | 0.527 ± 0.013
x1 = 0.1165 | 704.5 ± 0.4 | 1166.5 ± 9.4 | 0.535 ± 0.013
x1 = 0.205 | 709.8 ± 0.4 | 1164.8 ± 9.4 | 0.576 ± 0.013
x1 = 0.2792 | 714.7 ± 0.4 | 1164 ± 9.4 | 0.617 ± 0.013
x1 = 0.3371 | 718.9 ± 0.4 | 1163.1 ± 9.4 | 0.663 ± 0.013
x1 = 0.4081 | 724.6 ± 0.4 | 1162.7 ± 9.4 | 0.719 ± 0.013
x1 = 0.4662 | 729.6 ± 0.4 | 1163.3 ± 9.4 | 0.788 ± 0.013
x1 = 0.5126 | 733.9 ± 0.4 | 1163.7 ± 9.4 | 0.85 ± 0.013
x1 = 0.6126 | 744.1 ± 0.4 | 1166.3 ± 9.4 | 1.028 ± 0.014
x1 = 0.6615 | 749.5 ± 0.4 | 1168.4 ± 9.4 | 1.154 ± 0.014
x1 = 0.7069 | 754.9 ± 0.4 | 1170 ± 9.5 | 1.3 ± 0.015
x1 = 0.7855 | 765 ± 0.4 | 1173.5 ± 9.5 | 1.634 ± 0.017
x1 = 0.8615 | 775.8 ± 0.4 | 1178.6 ± 9.5 | 2.102 ± 0.019
x1 = 0.9523 | 790.1 ± 0.4 | 1187 ± 9.6 | 2.875 ± 0.025
x1 = 1 | 798.2 ± 0.4 | 1191.3 ± 9.6 | 3.404 ± 0.029

CC(C)CO [2-methyl-1-propanol] + CCCCCCCCCC
[2]
Conditions | mass density [kg/m3] | speed of sound [m/s] | viscosity [mPa·s]
x1 = 0.0728 | 728.1 ± 0.4 | 1228.7 ± 9.9 | 0.848 ± 0.013
x1 = 0.1021 | 729 ± 0.4 | 1226.6 ± 9.9 | 0.859 ± 0.013
x1 = 0.2032 | 732.6 ± 0.4 | 1219.9 ± 9.9 | 0.89 ± 0.013
x1 = 0.2976 | 736.4 ± 0.4 | 1215.2 ± 9.8 | 0.934 ± 0.014
x1 = 0.3547 | 739 ± 0.4 | 1212.2 ± 9.8 | 0.976 ± 0.014
x1 = 0.4171 | 742.1 ± 0.4 | 1209.4 ± 9.8 | 1.023 ± 0.014
x1 = 0.5016 | 747 ± 0.4 | 1206.1 ± 9.8 | 1.119 ± 0.014
x1 = 0.6084 | 754.2 ± 0.4 | 1201.8 ± 9.7 | 1.297 ± 0.015
x1 = 0.6575 | 758 ± 0.4 | 1200.2 ± 9.7 | 1.415 ± 0.016
x1 = 0.7027 | 761.9 ± 0.4 | 1198.4 ± 9.7 | 1.543 ± 0.016
x1 = 0.8004 | 771.6 ± 0.4 | 1195.1 ± 9.7 | 1.942 ± 0.018
x1 = 0.8952 | 782.9 ± 0.4 | 1192.9 ± 9.6 | 2.503 ± 0.022
x1 = 0.9497 | 790.5 ± 0.4 | 1192 ± 9.6 | 2.928 ± 0.025
x1 = 0.9848 | 795.8 ± 0.4 | 1191.8 ± 9.6 | 3.249 ± 0.028
x1 = 1 | 798.2 ± 0.4 | 1191.3 ± 9.6 | 3.404 ± 0.029

CCCCCCCCCC [decane]
[1]
Conditions | mass density [kg/m3] | speed of sound [m/s] | viscosity [mPa·s]
– | 725.9 ± 0.4 | 1235.4 ± 10 | 0.845 ± 0.013

CCCCCCCCCC [decane] + CC(C)CO
[2], x2 = 0
Conditions | mass density [kg/m3] | speed of sound [m/s] | viscosity [mPa·s]
– | 725.9 ± 0.4 | 1235.4 ± 10 | 0.845 ± 0.013

CCCCCC [hexane]
[1]
Conditions | mass density [kg/m3] | speed of sound [m/s] | viscosity [mPa·s]
– | 654.9 ± 0.4 | 1078.5 ± 8.7 | 0.313 ± 0.012

CCCCCC [hexane] + CC(C)CO
[2], x2 = 0
Conditions | mass density [kg/m3] | speed of sound [m/s] | viscosity [mPa·s]
– | 654.9 ± 0.4 | 1078.5 ± 8.7 | 0.313 ± 0.012

CCCCCCCC [octane]
[1]
Conditions | mass density [kg/m3] | speed of sound [m/s] | viscosity [mPa·s]
– | 698.6 ± 0.4 | 1170.9 ± 9.5 | 0.518 ± 0.013

CCCCCCCC [octane] + CC(C)CO
[2], x2 = 0
Conditions | mass density [kg/m3] | speed of sound [m/s] | viscosity [mPa·s]
– | 698.6 ± 0.4 | 1170.9 ± 9.5 | 0.518 ± 0.013
